Reference: US8580762B2, “Substituted purine and 7-deazapurine compounds” (Epizyme, Inc., priority 2010, dated 2013)
Like-named read-outs stand apart in the source and are kept apart here.

Molecular target: DOT1L(1-416) (Homo sapiens, UniProt Q8TEK3)
Assay: Determination of IC50: DOT1L(1-416) methyltransferase assay, 3H-SAM, oligonucleosome substrate, Flashplate
Type: biochemical
Details: read-out: DOT1L IC50
In short: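 Compounds in 10-point 3-fold DMSO dilutions were tested in reactions started with substrate mix of 200 nM [3H]-SAM, 600 nM unlabeled SAM and 20 nM oligonucleosome. Reactions ran 120 min at room temperature and were quenched with 100 μM SAM. Labeled substrate was captured on streptavidin Flashplates and counted by scintillation to give IC50.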

DOT1L(1-416), sequence (Q8TEK3 1-416): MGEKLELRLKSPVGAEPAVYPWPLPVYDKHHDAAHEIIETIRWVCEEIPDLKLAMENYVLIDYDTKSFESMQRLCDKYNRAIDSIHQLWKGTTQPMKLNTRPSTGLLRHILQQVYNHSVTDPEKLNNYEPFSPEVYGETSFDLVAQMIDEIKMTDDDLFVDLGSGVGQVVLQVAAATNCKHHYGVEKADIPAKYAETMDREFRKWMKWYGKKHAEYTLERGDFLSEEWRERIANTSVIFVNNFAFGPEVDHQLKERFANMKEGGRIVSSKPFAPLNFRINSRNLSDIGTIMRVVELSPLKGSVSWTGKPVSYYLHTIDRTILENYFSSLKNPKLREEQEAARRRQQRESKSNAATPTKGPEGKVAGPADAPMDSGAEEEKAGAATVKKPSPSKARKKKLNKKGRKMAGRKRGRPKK

| SMILES | IC50 (class symbols) [nM] | IC50 [nM] |
| --- | --- | --- |
| CC(C)N(C[C@H]1O[C@@H](n2cnc3c(N)ncnc32)[C@H](O)[C@@H]1O)[C@H]1C[C@@H](CCc2nc3cc(C(C)(C)C#N)ccc3[nH]2)C1 [Compound 128, 2-(2-(2-((1S,3r)-3-((((2R,3S,4R,5R)-5-(6-amino-9H-purin-9-yl)-3,4-dihydroxytetrahydro-furan-2-yl)methyl)(isopropyl)amino)cyclobutyl)ethyl)-1H-benzo[d]imidazol-5-yl)-2-methylpropanenitrile] | < 100 |  |
| CC(C)N(C[C@H]1O[C@@H](n2ccc3c(N)ncnc32)[C@H](O)[C@@H]1O)[C@H]1C[C@H](CCc2nc3cc(C(C)(C)C)ccc3[nH]2)C1 [Compound 75, (2R,3R,4S,5R)-2-(4-amino-7H-pyrrolo[2,3-d]pyrimidin-7-yl)-5-((((1s,3R)-3-(2-(5-(tert-butyl)-1H-benzo[d]imidazol-2-yl)ethyl)cyclobutyl)(isopropyl)amino)methyl)tetrahydrofuran-3,4-diol] | < 100 | 0.59 |
| CN(C[C@H]1O[C@@H](n2ccc3c(N)ncnc32)[C@H](O)[C@@H]1O)C1CC(Cc2nc3cc(C(C)(C)C)ccc3[nH]2)C1 (stereo partly drawn) [Compound 6, (2R,3R,4S,5R)-2-(4-amino-7H-pyrrolo[2,3-d]pyrimidin-7-yl)-5-(((3-((5-(tert-butyl)-1H-benzo[d]imidazol-2-yl)methyl)cyclobutyl)(methyl)amino)methyl)tetrahydrofuran-3,4-diol] | < 100 |  |
| CC(C)(C)c1ccc2[nH]c(CC[C@H]3C[C@H](N(C[C@H]4O[C@@H](n5ccc6c(N)ncnc65)[C@H](O)[C@@H]4O)CC(F)(F)F)C3)nc2c1 [Compound 77, (2R,3R,4S,5R)-2-(4-amino-7H-pyrrolo[2,3-d]pyrimidin-7-yl)-5-((((1s,3R)-3-(2-(5-(tert-butyl)-1H-benzo[d]imidazol-2-yl)ethyl)cyclobutyl)(2,2,2-trifluoroethyl)amino)methyl)tetrahydrofuran-3,4-diol] | 100 to 1000 |  |
| CCN(C[C@H]1O[C@@H](n2ccc3c(N)ncnc32)[C@H](O)[C@@H]1O)[C@H]1C[C@H](CCc2nc3cc(C(C)(C)C)ccc3[nH]2)C1 [Compound 88, (2R,3R,4S,5R)-2-(4-amino-7H-pyrrolo[2,3-d]pyrimidin-7-yl)-5-((((1s,3R)-3-(2-(5-(tert-butyl)-1H-benzo[d]imidazol-2-yl)ethyl)cyclobutyl) (ethyl)amino)methyl) tetrahydrofuran-3,4-diol] | < 100 |  |
| CC(C)(C)c1ccc2[nH]c(CCC3CC(N(CC4CC4)C[C@H]4C[C@@H](n5ccc6c(N)ncnc65)[C@H](O)[C@@H]4O)C3)nc2c1 (stereo partly drawn) [Compound 44, (1R,2S,3R,5R)-3-(4-amino-7H-pyrrolo[2,3-d]pyrimidin-7-yl)-5-(((3-(2-(5-(tert-butyl)-1H-benzo[d]imidazol-2-yl)ethyl)cyclobutyl)(cyclopropylmethyl)amino)methyl)cyclopentane-1,2-diol] | < 100 |  |
| CN(C[C@H]1O[C@@H](n2cnc3c(N)ncnc32)[C@H](O)[C@@H]1O)C1CC(CCc2nc3cc(C4(C)CCC4)ccc3[nH]2)C1 (stereo partly drawn) [Compound 33, (2R,3R,4S,5R)-2-(6-amino-9H-purin-9-yl)-5-((methyl(3-(2-(5-(1-methylcyclobutyl)-1H-benzo[d]imidazol-2-yl)ethyl)cyclobutyl)amino)methyl)tetrahydrofuran-3,4-diol] | < 100 |  |
| CC(C)N(C[C@H]1O[C@@H](n2cnc3c(N)ncnc32)[C@H](O)[C@@H]1O)[C@H]1C[C@H](CCc2nc3cc(C(C)(C)C#N)ccc3[nH]2)C1 [Compound 129, 2-(2-(2-((1R,3s)-3-((((2R,3S,4R,5R)-5-(6-amino-9H-purin-9-yl)-3,4-dihydroxytetrahydro-furan-2-yl)methyl)(isopropyl)amino)cyclobutyl)ethyl)-1H-benzo[d]imidazol-5-yl)-2-methylpropanenitrile] | < 100 |  |
| CC(C)N(C[C@@H]1C[C@@H](O)[C@H](n2ccc3c(N)ncnc32)C1)[C@H]1C[C@@H](CCc2nc3cc(Cl)c(C(F)(F)F)cc3[nH]2)C1 [Compound 105, (1R,2R,4S)-2-(4-amino-7H-pyrrolo[2,3-d]pyrimidin-7-yl)-4-((((1r,3R)-3-(2-(5-chloro-6-(trifluoromethyl)-1H-benzo[d]imidazol-2-yl)ethyl)cyclobutyl) (isopropyl)amino)methyl)cyclopentanol] | 1000 to 10000 |  |
| CC(C)N(C[C@H]1C[C@@H](n2cnc3c(N)ncnc32)[C@H](O)[C@@H]1O)C1CC(CCc2nc3cc(C(C)(C)C)ccc3[nH]2)C1 (stereo partly drawn) [Compound 50, (1R,2S,3R,5R)-3-(6-amino-9H-purin-9-yl)-5-(((3-(2-(5-(tert-butyl)-1H-benzo[d]imidazol-2-yl)ethyl)cyclobutyl)(isopropyl)amino)methyl)cyclopentane-1,2-diol] | < 100 |  |
| CN(C[C@H]1O[C@@H](n2cnc3c(N)ncnc32)[C@H](O)[C@@H]1O)[C@H]1C[C@@H](CCc2nc3cc(C4CC4)ccc3[nH]2)C1 [Compound 133, (2R,3R,4S,5R)-2-(6-amino-9H-purin-9-yl)-5-((((1r,3S)-3-(2-(5-cyclopropyl-1H-benzo[d]imidazol-2-yl)ethyl)cyclobutyl) (methyl)amino)methyl) tetrahydrofuran-3,4-diol] | < 100 |  |
| CC(C)N(C[C@H]1O[C@@H](n2ccc3c(N)ncnc32)[C@H](O)[C@@H]1O)[C@H]1C[C@H](CCc2nc3cc(OC(F)(F)F)ccc3[nH]2)C1 [Compound 76, (2R,3R,4S,5R)-2-(4-amino-7H-pyrrolo[2,3-d]pyrimidin-7-yl)-5-((isopropyl((1s,3R)-3-(2-(5-(trifluoromethoxy)-1H-benzo[d]imidazol-2-yl)ethyl)cyclobutyl)amino)methyl)tetrahydrofuran-3,4-diol] | < 100 |  |
| CN(C[C@H]1O[C@@H](n2cnc3c(N)ncnc32)[C@H](O)[C@@H]1O)[C@H]1C[C@H](CCc2nc3cc(C4(C)CCC4)ccc3[nH]2)C1 [Compound 34] | < 100 |  |
| CN(C[C@@H]1C[C@@H](O)[C@H](n2ccc3c(N)ncnc32)C1)[C@H]1C[C@H](CCc2nc3cc(Cl)c(C(F)(F)F)cc3[nH]2)C1 [Compound 85, (1R,2R,4S)-2-(4-amino-7H-pyrrolo[2,3-d]pyrimidin-7-yl)-4-((((1s,3S)-3-(2-(5-chloro-6-(trifluoromethyl)-1H-benzo[d]imidazol-2-yl)ethyl)cyclobutyl) (methyl)amino)methyl) cyclopentanol] | 10000 to 50000 |  |
| CC(C)(C)c1ccc2[nH]c(CC[C@H]3C[C@@H](N(CC4CC4)C[C@H]4C[C@@H](n5ccc6c(N)ncnc65)[C@H](O)[C@@H]4O)C3)nc2c1 [Compound 40, (1R,2S,3R,5R)-3-(4-amino-7H-pyrrolo[2,3-d]pyrimidin-7-yl)-5-((((1r,3S)-3-(2-(5-(tert-butyl)-1H-benzo[d]imidazol-2-yl)ethyl)cyclobutyl)(cyclopropylmethyl)amino)methyl)cyclopentane-1,2-diol] | < 100 |  |
| CC(C)N(C[C@H]1O[C@@H](n2cnc3c(N)ncnc32)[C@H](O)[C@@H]1O)[C@H]1C[C@@H](CCc2nc3cc(CC(F)(F)F)ccc3[nH]2)C1 [Compound 124, (2R,3R,4S,5R)-2-(6-amino-9H-purin-9-yl)-5-((isopropyl((1r,3S)-3-(2-(5-(2,2,2-trifluoroethyl)-1H-benzo[d]imidazol-2-yl)ethyl)cyclobutyl)amino)methyl) tetrahydrofuran-3,4-diol] | < 100 |  |
| CN(C[C@H]1C[C@@H](n2ccc3c(N)ncnc32)[C@H](O)[C@@H]1O)[C@H]1C[C@@H](CCc2nc3cc(C(F)(F)F)c(Cl)cc3[nH]2)C1 [Compound 9, (1R,2S,3R,5R)-3-(4-amino-7H-pyrrolo[2,3-d]pyrimidin-7-yl)-5-((((1r,3S)-3-(2-(6-chloro-5-(trifluoromethyl)-1H-benzo[d]imidazol-2-yl)ethyl)cyclobutyl)(methyl)amino)methyl)cyclopentane-1,2-diol] | < 100 |  |
| CC(C)N(C[C@H]1O[C@@H](n2cnc3c(N)ncnc32)[C@H](O)[C@@H]1O)[C@H]1C[C@@H](CCc2nc3cc(C4(C#N)CC4)ccc3[nH]2)C1 [Compound 135, 1-(2-(2-((1S,3r)-3-((((2R,3S,4R,5R)-5-(6-amino-9H-purin-9-yl)-3,4-dihydroxytetrahydro-furan-2-yl)methyl)(isopropyl)amino)cyclobutyl)ethyl)-1H-benzo[d]imidazol-5-yl)cyclo-propanecarbonitrile] | < 100 |  |
| CC(C)N(C[C@H]1O[C@@H](n2cnc3c(N)ncnc32)[C@H](O)[C@@H]1O)C1CC(CCc2nc3cc(C4(C)CCC4)ccc3[nH]2)C1 (stereo partly drawn) [Compound 27, (2R,3R,4S,5R)-2-(6-amino-9H-purin-9-yl)-5-((isopropyl(3-(2-(5-(1-methylcyclobutyl)-1H-benzo[d]imidazol-2-yl)ethyl)cyclobutyl)amino)methyl)tetrahydrofuran-3,4-diol] | < 100 |  |
| CCN(C[C@H]1O[C@@H](n2cnc3c(N)ncnc32)[C@H](O)[C@@H]1O)C1CC(CCc2nc3cc(C(C)(C)C)ccc3[nH]2)C1 (stereo partly drawn) [Compound 79, (2R,3R,4S,5R)-2-(6-amino-9H-purin-9-yl)-5-(((3-(2-(5-(tert-butyl)-1H-benzo[d]imidazol-2-yl)ethyl)cyclobutyl) (ethyl)amino)methyl) tetrahydrofuran-3,4-diol] | < 100 |  |
| CC(C)N(C[C@H]1O[C@@H](n2cnc3c(N)ncnc32)[C@H](O)[C@@H]1O)C1CC(CCc2nc3cc(C4CCC4)ccc3[nH]2)C1 (stereo partly drawn) [Compound 111, (2R,3R,4S,5R)-2-(6-amino-9H-purin-9-yl)-5-(((3-(2-(5-cyclobutyl-1H-benzo[d]imidazol-2-yl)ethyl)cyclobutyl) (isopropyl)amino)methyl)tetrahydrofuran-3,4-diol] | < 100 |  |
| CC(C)N(C[C@H]1O[C@@H](n2cnc3c(N)ncnc32)[C@H](O)[C@@H]1O)[C@H]1C[C@@H](CCc2nc3cc(C4CCC4)ccc3[nH]2)C1 [Compound 115, (2R,3R,4S,5R)-2-(6-amino-9H-purin-9-yl)-5-((((1r,3S)-3-(2-(5-cyclobutyl-1H-benzo[d]imidazol-2-yl)ethyl)cyclobutyl) (isopropyl)amino)methyl)tetrahydrofuran-3,4-diol] | < 100 |  |
